Data: PubChem BioAssay AID2060909 (Molecular Pharmacology Branch, DTP, NCI, 2025)
Several values for one entry are separate records, joined by “and”; a condition that tells them apart may be missing. Equal entries are not always repeated.

Test system: 362531-283-R-J2-PDC complex spheroid viability
Assay: Anticancer human tumor 362531-283-R-J2-PDC patient-derived colon adenocarcinoma cell line growth inhibition [RAS]
Conditions: for viability, T/C: stronger effect = lower value
Outline: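 Agents were tested in combination matrices in half-log decrements from a top concentration at or near clinical Cmax (10 microM if undetermined). Targets were multi-cell spheroids of tumour lines plus HUVEC and MSC stromal cells.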

[1] = curve of first compound, second compound 0.0316 µM
[2] = curve of first compound, second compound 0.1 µM
[3] = curve of first compound, second compound 0.316 µM
[4] = curve of first compound, second compound 1 µM
[5] = curve of first compound, second compound 3.16 µM
[6] = curve of first compound, second compound 10 µM
[7] = second compound 0.0316 µM, first compound 0.0316 µM
[8] = second compound 0.0316 µM, first compound 0.1 µM
[9] = second compound 0.0316 µM, first compound 0.316 µM
[10] = second compound 0.0316 µM, first compound 1 µM
[11] = second compound 0.0316 µM, first compound 3.16 µM
[12] = second compound 0.0316 µM, first compound 10 µM
[13] = second compound 0.1 µM, first compound 0.0316 µM
[14] = second compound 0.1 µM, first compound 0.1 µM
[15] = second compound 0.1 µM, first compound 0.316 µM
[16] = second compound 0.1 µM, first compound 1 µM
[17] = second compound 0.1 µM, first compound 3.16 µM
[18] = second compound 0.1 µM, first compound 10 µM
[19] = second compound 0.316 µM, first compound 0.0316 µM
[20] = second compound 0.316 µM, first compound 0.1 µM
[21] = second compound 0.316 µM, first compound 0.316 µM
[22] = second compound 0.316 µM, first compound 1 µM
[23] = second compound 0.316 µM, first compound 3.16 µM
[24] = second compound 0.316 µM, first compound 10 µM
[25] = second compound 1 µM, first compound 0.0316 µM
[26] = second compound 1 µM, first compound 0.1 µM
[27] = second compound 1 µM, first compound 0.316 µM
[28] = second compound 1 µM, first compound 1 µM
[29] = second compound 1 µM, first compound 3.16 µM
[30] = second compound 1 µM, first compound 10 µM
[31] = second compound 3.16 µM, first compound 0.0316 µM
[32] = second compound 3.16 µM, first compound 0.1 µM
[33] = second compound 3.16 µM, first compound 0.316 µM
[34] = second compound 3.16 µM, first compound 1 µM
[35] = second compound 3.16 µM, first compound 3.16 µM
[36] = second compound 3.16 µM, first compound 10 µM
[37] = second compound 10 µM, first compound 0.0316 µM
[38] = second compound 10 µM, first compound 0.1 µM
[39] = second compound 10 µM, first compound 0.316 µM
[40] = second compound 10 µM, first compound 1 µM
[41] = second compound 10 µM, first compound 3.16 µM
[42] = second compound 10 µM, first compound 10 µM
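Also: spheroids exposed to the agents for 7 days before readout.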
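For viability, T/C in this document: luminescence viability as percent of DMSO vehicle control wells.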

Compound: CCC(CC)c1cc(NC2CCC(N)C2)n2nccc2n1 (stereo not drawn) + CCn1c(-c2cc(N3CCN(C)CC3)cnc2C(C)OC)c2c3cc(ccc31)-c1csc(n1)CC(NC(=O)C1CC1C)C(=O)N1CCCC(N1)C(=O)OCC(C)(C)C2
- IC50 (curve of first compound, second compound 0.000949 µM): 4.55 µM
- IC50 (curve of first compound, second compound 0.003 µM): 4.56 µM
- IC50 (curve of first compound, second compound 0.00949 µM): 4.58 µM
- IC50 (curve of first compound, second compound 0.03 µM): 4.8 µM
- IC50 (curve of first compound, second compound 0.0949 µM): 4.69 µM
- IC50 (curve of first compound, second compound 0.3 µM): < 0.0316 µM
- viability, T/C (second compound 0.000949 µM, first compound 0.0316 µM): 94.5%
- viability, T/C (second compound 0.000949 µM, first compound 0.1 µM): 116%
- viability, T/C (second compound 0.000949 µM, first compound 0.316 µM): 99.3%
- viability, T/C (second compound 0.000949 µM, first compound 1 µM): 101%
- viability, T/C (second compound 0.000949 µM, first compound 3.16 µM): 71.2%
- viability, T/C (second compound 0.000949 µM, first compound 10 µM): 4.02%
- viability, T/C (second compound 0.003 µM, first compound 0.0316 µM): 103%
- viability, T/C (second compound 0.003 µM, first compound 0.1 µM): 108%
- viability, T/C (second compound 0.003 µM, first compound 0.316 µM): 96.6%
- viability, T/C (second compound 0.003 µM, first compound 1 µM): 98.4%
- viability, T/C (second compound 0.003 µM, first compound 3.16 µM): 71.4%
- viability, T/C (second compound 0.003 µM, first compound 10 µM): 3.89%
- viability, T/C (second compound 0.00949 µM, first compound 0.0316 µM): 102%
- viability, T/C (second compound 0.00949 µM, first compound 0.1 µM): 141%
- viability, T/C (second compound 0.00949 µM, first compound 0.316 µM): 97.5%
- viability, T/C (second compound 0.00949 µM, first compound 1 µM): 94.7%
- viability, T/C (second compound 0.00949 µM, first compound 3.16 µM): 76%
- viability, T/C (second compound 0.00949 µM, first compound 10 µM): 3.54%
- viability, T/C (second compound 0.03 µM, first compound 0.0316 µM): 101%
- viability, T/C (second compound 0.03 µM, first compound 0.1 µM): 103%
- viability, T/C (second compound 0.03 µM, first compound 0.316 µM): 89.8%
- viability, T/C (second compound 0.03 µM, first compound 1 µM): 99.4%
- viability, T/C (second compound 0.03 µM, first compound 3.16 µM): 76.1%
- viability, T/C (second compound 0.03 µM, first compound 10 µM): 3.95%
- viability, T/C (second compound 0.0949 µM, first compound 0.0316 µM): 90.2%
- viability, T/C (second compound 0.0949 µM, first compound 0.1 µM): 86.8%
- viability, T/C (second compound 0.0949 µM, first compound 0.316 µM): 81.2%
- viability, T/C (second compound 0.0949 µM, first compound 1 µM): 85.6%
- viability, T/C (second compound 0.0949 µM, first compound 3.16 µM): 74.1%
- viability, T/C (second compound 0.0949 µM, first compound 10 µM): 3.61%
- viability, T/C (second compound 0.3 µM, first compound 0.0316 µM): 47.8%
- viability, T/C (second compound 0.3 µM, first compound 0.1 µM): 51.8%
- viability, T/C (second compound 0.3 µM, first compound 0.316 µM): 45%
- viability, T/C (second compound 0.3 µM, first compound 1 µM): 27.9%
- viability, T/C (second compound 0.3 µM, first compound 3.16 µM): 4.3%
- viability, T/C (second compound 0.3 µM, first compound 10 µM): 3.52%

Compound: CC(Nc1ccc2c(c1)OCCn1cc(N3C(=O)OCC3C(F)F)nc1-2)C(N)=O (stereo not drawn) + C#Cc1c(F)ccc2cc(O)cc(-c3ncc4c(N5CC6CCC(C5)N6)nc(OCC56CCCN5CC(F)C6)nc4c3F)c12
- IC50 [1]: 1.29 µM
- IC50 [2]: 0.963 µM
- IC50 [3]: 0.847 µM
- IC50 [4]: 0.421 µM
- IC50 [5]: 0.119 µM
- IC50 [6]: 0.0429 µM
- viability, T/C [7]: 90.7%
- viability, T/C [8]: 88.4%
- viability, T/C [9]: 79%
- viability, T/C [10]: 55%
- viability, T/C [11]: 33.7%
- viability, T/C [12]: 31%
- viability, T/C [13]: 95%
- viability, T/C [14]: 77%
- viability, T/C [15]: 69.9%
- viability, T/C [16]: 48.6%
- viability, T/C [17]: 34.5%
- viability, T/C [18]: 28.8%
- viability, T/C [19]: 103%
- viability, T/C [20]: 81.5%
- viability, T/C [21]: 63.7%
- viability, T/C [22]: 50.9%
- viability, T/C [23]: 29.7%
- viability, T/C [24]: 13.8%
- viability, T/C [25]: 80.5%
- viability, T/C [26]: 59.4%
- viability, T/C [27]: 62.9%
- viability, T/C [28]: 34.2%
- viability, T/C [29]: 25.6%
- viability, T/C [30]: 18%
- viability, T/C [31]: 62%
- viability, T/C [32]: 51.9%
- viability, T/C [33]: 31.4%
- viability, T/C [34]: 7.66%
- viability, T/C [35]: 7.58%
- viability, T/C [36]: 4.5%
- viability, T/C [37]: 56.1%
- viability, T/C [38]: 33%
- viability, T/C [39]: 6.59%
- viability, T/C [40]: 4.96%
- viability, T/C [41]: 3.74%
- viability, T/C [42]: 2.42%

Compound: CC(C)NCC(C(=O)N1CCN(c2ncnc3c2C(C)CC3O)CC1)c1ccc(Cl)cc1 (stereo not drawn)
- viability, T/C (compound 0.0316 µM): 103% [middle of 4 runs]
- viability, T/C (compound 0.1 µM): 103% [middle of 4 runs]
- viability, T/C (compound 0.316 µM): 103% [middle of 4 runs]
- viability, T/C (compound 1 µM): 101% [middle of 4 runs]
- viability, T/C (compound 3.16 µM): 98.5% and 102% (2×) and 98.2%
- viability, T/C (compound 10 µM): 98.2% [middle of 4 runs]
- IC50 (curve of compound): > 10 µM

Compound: CC1(O)CCCC1n1c(=O)c(C(F)F)cc2cnc(NC3CCN(S(C)(=O)=O)CC3)nc21 (stereo not drawn) + C#Cc1c(F)ccc2cc(O)cc(-c3ncc4c(N5CC6CCC(C5)N6)nc(OCC56CCCN5CC(F)C6)nc4c3F)c12
- IC50 [1]: > 10 µM
- IC50 [2]: > 10 µM
- IC50 [3]: 3.08 µM
- IC50 [4]: 3.43 µM
- IC50 [5]: 1.29 µM
- IC50 [6]: < 0.0316 µM
- viability, T/C [7]: 92.6%
- viability, T/C [8]: 91.8%
- viability, T/C [9]: 71.8%
- viability, T/C [10]: 71%
- viability, T/C [11]: 62.3%
- viability, T/C [12]: 81%
- viability, T/C [13]: 95.4%
- viability, T/C [14]: 92.5%
- viability, T/C [15]: 80.9%
- viability, T/C [16]: 73.4%
- viability, T/C [17]: 68.7%
- viability, T/C [18]: 73.2%
- viability, T/C [19]: 82.7%
- viability, T/C [20]: 89.1%
- viability, T/C [21]: 74.6%
- viability, T/C [22]: 66.4%
- viability, T/C [23]: 49.8%
- viability, T/C [24]: 37%
- viability, T/C [25]: 82.8%
- viability, T/C [26]: 80.5%
- viability, T/C [27]: 67.7%
- viability, T/C [28]: 69.3%
- viability, T/C [29]: 53.9%
- viability, T/C [30]: 20.4%
- viability, T/C [31]: 59.2%
- viability, T/C [32]: 59.8%
- viability, T/C [33]: 61.4%
- viability, T/C [34]: 54.7%
- viability, T/C [35]: 32%
- viability, T/C [36]: 7.49%
- viability, T/C [37]: 45.1%
- viability, T/C [38]: 50.7%
- viability, T/C [39]: 29.9%
- viability, T/C [40]: 29.7%
- viability, T/C [41]: 24.7%
- viability, T/C [42]: 5.91%
